Among the data in US8501787B2, “Compounds for the inhibition of angiogenesis and use thereof” (Shire Orphan Therapies GmbH, priority 2004, dated 2013) are IC50 values, retold here.

In the first assay the target is T1, integrin alpha5beta1 (Homo sapiens, UniProt P05556+P08648).
T1 construct: The integrin alpha5beta1 extracellular domain Fc-fusion was expressed and purified; made in house
Briefly: Alpha5beta1-Fibronectin binding assay (competitive ELISA). To be noted: inhibition of integrin binding to fibronectin; read-out: IC50 alpha5beta1 in nM. On the procedure: The optimal concentrations of integrin and ligand were selected from ELISA binding studies with variable concentrations of both to obtain optimal signal noise ratio for further studies. IC50 studies were performed with fixed concentration of ligand and integrin and a serial dilution of inhibitor. The plates were measured with SpectraMax Plus reader (Molecular Devices). The resulting inhibition curves were analyzed using SoftMaxPro 4.0 software, the turning point describes the IC50 value.
Fibronectin and Vitronectin were purchased from Sigma, fibrinogen from Calbiochem. (EMD Biosciences, Darmstadt, Germany) The integrin alpha5beta1 extracellular domain Fc-fusion was expressed and purified as described in (Coe, 2001, JBC, 276, 35854). Integrins alphavbeta3 and alphavbeta5 were purchased from Chemicon (Chemicon Europe, Germany) and alphaIIbbeta3 form Kordia (Kordia Life Science, Leiden, Netherlands)
Fibronectin was diluted with coating buffer (15 mM Na2CO3, 35 mM NaHCO3, pH9.6) and coated with 100 μL/well to Nunc-Immuno maxisorp plates (Nalge Nunc Europe Ltd) over night at 4° C. After discarding the coating solution plates were washed 3 times with buffer 1 ([…], pH7.6, 150 mM NaCl, 1 mM […], 1 mg/mL BSA) and blocked with 100 μL blocking buffer (3% BSA in PBS 0.1% Tween20) for 1 hour at room temperature. After washing the blocked plates (3 times) with buffer 1, integrin (50 μL) and either inhibitor (serial dilution in buffer 1) or buffer 1 (50 μL) were added to the wells and incubated for one hour at RT. Plates were then washed (3 times) with buffer 1 and incubated with 100 μL of anti-human-Fc-HRP antibody conjugate (Sigma-Aldrich, Taufkirchen, Germany) in buffer 1 for 1 hour at RT. After additional washing steps (3 times) with buffer 1 50 μL of HRP substrate solution TMB (Seramun, Germany) were added to the wells. Colour development was stopped after 3-5 minutes with 50 μL 1M H2SO4. The developed colour was measured at 450 nm and analyzed as described above.
Take `Cc1cc(C)c(S(=O)(=O)N[C@@H](CNC(=O)CO[C@@H]2C[C@@H](CNc3ccccn3)N(C(=O)NC3CCCC3)C2)C(=O)O)c(C)c1` [Compound 20, 3-{2-[1-Cyclopentylcarbamoyl-5-(pyridin-2-ylaminomethyl)-pyrrolidin-3-yloxy]-acetylamino}-2-(2,4,6-trimethyl-benzenesulfonylamino)-propionic acid]: the IC50 came to 6.6 nM.

On to `CCC(=O)N1C[C@H](OCC(=O)NC[C@H](NS(=O)(=O)c2c(C)cc(C)cc2C)C(=O)O)C[C@H]1CNc1ccccn1` [Compound 38, 3-{2-[1-Propionyl-5-(pyridin-2-ylaminomethyl)-pyrrolidin-3-yloxy]-acetylamino}-2-(2,4,6-trimethyl-benzenesulfonylamino)-propionic acid], for which the IC50 was found to be 11.9 nM. With `Cc1ccc(CNC(=O)N2C[C@H](OCC(=O)NC[C@H](NS(=O)(=O)c3c(C)cc(C)cc3C)C(=O)O)C[C@H]2CNc2ccccn2)cc1` [Compound 25, 3-{2-[1-(4-Methyl-benzylcarbamoyl)-5-(pyridin-2-ylaminomethyl)-pyrrolidin-3-yloxy]-acetylamino}-2-(2,4,6-trimethyl-benzenesulfonylamino)-propionic acid], the IC50 was found to be 18.1 nM.

Turning to `C#CCOC(=O)N1C[C@H](OCC(=O)NC[C@H](NS(=O)(=O)c2c(C)cc(C)cc2C)C(=O)O)C[C@H]1CNc1ccccn1` [Compound 44, 4-{[2-Carboxy-2-(2,4,6-trimethyl-benzenesulfonylamino)-ethylcarbamoyl]-methoxy}-2-(pyridin-2-ylaminomethyl)-pyrrolidine-1-carboxylic acid prop-2-ynyl ester], the IC50 is 5.8 nM.

Still in this assay, the particulars now being: method of section 1.1; read-out: Group (binding activities to integrin alpha5beta1).
In the case of `CC(C)c1cc(C(C)C)c(C(=O)N[C@@H](CNC(=O)CO[C@@H]2C[C@@H](CNc3ccccn3)N(C(=O)OCc3ccccc3)C2)C(=O)O)c(C(C)C)c1` [Compound 126, 4-{[2-Carboxy-2-(2,4,6-triisopropyl-benzoylamino)-ethylcarbamoyl]-methoxy}-2-(pyridin-2-ylaminomethyl)-pyrrolidine-1-carboxylic acid benzyl ester], the IC50 was over 500 nM.

Turning to `Cc1cc(C)c(S(=O)(=O)N[C@@H](CNC(=O)CO[C@@H]2C[C@@H](CNc3ccccn3)N(C(=O)CC3CCCC3)C2)C(=O)O)c(C)c1` [Compound 35, 3-{2-[1-(2-Cyclopentyl-acetyl)-5-(pyridin-2-ylaminomethyl)-pyrrolidin-3-yloxy]-acetylamino}-2-(2,4,6-trimethyl-benzenesulfonylamino)-propionic acid], the IC50 was in the range of 10 to 500 nM. Turning to `Cc1cc(C)c(S(=O)(=O)N[C@@H](CNC(=O)CO[C@@H]2C[C@@H](CNc3ccccn3)N(C(=O)NC3CCCC3)C2)C(=O)O)c(C)c1` [Compound 20, 3-{2-[1-Cyclopentylcarbamoyl-5-(pyridin-2-ylaminomethyl)-pyrrolidin-3-yloxy]-acetylamino}-2-(2,4,6-trimethyl-benzenesulfonylamino)-propionic acid], the IC50 is under 10 nM. Same read-out and setting: under `Cc1cc(C)c(CNC(CNC(=O)COC2CC(CNc3ccccn3)N(C(=O)OCc3ccccc3)C2)C(=O)O)c(C)c1` (stereo not drawn) [Compound 82, 4-{[2-Carboxy-2-(2,4,6-trimethyl-benzylamino)-ethylcarbamoyl]-methoxy}-2-(pyridin-2-ylaminomethyl)-pyrrolidine-1-carboxylic acid benzyl ester] stands over 500 nM; under `Cc1cc(C)c(S(=O)(=O)N[C@@H](CNC(=O)CO[C@@H]2C[C@@H](CNc3cc[nH]n3)N(C(=O)OCc3ccccc3)C2)C(=O)O)c(C)c1` [Compound 135, 4-{[2-Carboxy-2-(2,4,6-trimethyl-benzenesulfonylamino)-ethylcarbamoyl]-methoxy}-2-[(1H-pyrazol-3-ylamino)-methyl]-pyrrolidine-1-carboxylic acid benzyl ester], over 500 nM; under `Cc1cc(C)c(S(=O)(=O)N[C@@H](CNC(=O)CO[C@@H]2C[C@@H](CNc3ccccn3)N(CCCc3ccccc3)C2)C(=O)O)c(C)c1` [Compound 18, 3-{2-[1-(3-Phenyl-propyl)-5-(pyridin-2-ylaminomethyl)-pyrrolidin-3-yloxy]-acetylamino}-2-(2,4,6-trimethyl-benzenesulfonylamino)-propionic acid], 10 to 500 nM.

Take `Cc1cc(C)c(S(=O)(=O)N[C@@H](CNC(=O)CO[C@@H]2C[C@@H](CNc3ccccn3)N(C(=O)CC(C)(C)C)C2)C(=O)O)c(C)c1` [Compound 31, 3-{2-[1-(3,3-Dimethyl-butyryl)-5-(pyridin-2-ylaminomethyl)-pyrrolidin-3-yloxy]-acetylamino}-2-(2,4,6-trimethyl-benzenesulfonylamino)-propionic acid]: the IC50 is under 10 nM. The same measure, in the same setting: the result for `Cc1cccc(C)c1C(=O)N[C@@H](CNC(=O)CO[C@@H]1C[C@@H](CNc2ccccn2)N(C(=O)OCc2ccccc2)C1)C(=O)O` [Compound 92, 4-{[2-Carboxy-2-(2,6-dimethyl-benzoylamino)-ethylcarbamoyl]-methoxy}-2-(pyridin-2-ylaminomethyl)-pyrrolidine-1-carboxylic acid benzyl ester] reads under 10 nM; that for `CCC(=O)N1C[C@H](OCC(=O)NC[C@H](NS(=O)(=O)c2c(C)cc(C)cc2C)C(=O)O)C[C@H]1CNc1ccccn1` [Compound 38, 3-{2-[1-Propionyl-5-(pyridin-2-ylaminomethyl)-pyrrolidin-3-yloxy]-acetylamino}-2-(2,4,6-trimethyl-benzenesulfonylamino)-propionic acid], 10 to 500 nM. In the case of `O=C(CO[C@@H]1C[C@@H](CNc2ccccn2)N(C(=O)OCc2ccccc2)C1)NC[C@H](NC(=O)CCc1ccccc1)C(=O)O` [Compound 74, 4-{[2-Carboxy-2-(3-phenyl-propionylamino)-ethylcarbamoyl]-methoxy}-2-(pyridin-2-ylaminomethyl)-pyrrolidine-1-carboxylic acid benzyl ester], the IC50 fell in the range of 10 to 500 nM. Take `O=C(CO[C@@H]1C[C@@H](CNc2ccccn2)N(C(=O)OCc2ccccc2)C1)NC[C@H](NC(=O)c1ccccc1[N+](=O)[O-])C(=O)O` [Compound 96, 4-{[2-Carboxy-2-(2-nitro-benzoylamino)-ethylcarbamoyl]-methoxy}-2-(pyridin-2-ylaminomethyl)-pyrrolidine-1-carboxylic acid benzyl ester]: the IC50 is under 10 nM. Consider `N[C@@H](CNC(=O)CO[C@@H]1C[C@@H](CNc2ccccn2)N(C(=O)OCc2ccccc2)C1)C(=O)O` [Compound 81, 4-[(2-Amino-2-carboxy-ethylcarbamoyl)-methoxy]-2-(pyridin-2-ylaminomethyl)-pyrrolidine-1-carboxylic acid benzyl ester], for which the IC50 was over 500 nM. Turning to `Cc1cc(C)c(S(=O)(=O)N[C@@H](CNC(=O)CO[C@@H]2C[C@@H](CNc3ccccn3)N(C(=O)OCC(C)C)C2)C(=O)O)c(C)c1` [Compound 41, 4-{[2-Carboxy-2-(2,4,6-trimethyl-benzenesulfonylamino)-ethylcarbamoyl]-methoxy}-2-(pyridin-2-ylaminomethyl)-pyrrolidine-1-carboxylic acid isobutyl ester], the IC50 is under 10 nM. Same read-out and setting: the result for `O=C(CO[C@@H]1C[C@@H](CNc2ccccn2)N(C(=O)OCc2ccccc2)C1)NC[C@H](NC(=O)C1CCCCC1)C(=O)O` [Compound 91, 4-{[2-Carboxy-2-(cyclohexanecarbonyl-amino)-ethylcarbamoyl]-methoxy}-2-(pyridin-2-ylaminomethyl)-pyrrolidine-1-carboxylic acid benzyl ester] reads under 10 nM; that for `Cc1ccc(CNC(=O)N2C[C@H](OCC(=O)NC[C@H](NS(=O)(=O)c3c(C)cc(C)cc3C)C(=O)O)C[C@H]2CNc2ccccn2)cc1` [Compound 25, 3-{2-[1-(4-Methyl-benzylcarbamoyl)-5-(pyridin-2-ylaminomethyl)-pyrrolidin-3-yloxy]-acetylamino}-2-(2,4,6-trimethyl-benzenesulfonylamino)-propionic acid], 10 to 500 nM; that for `O=C(CO[C@@H]1C[C@@H](CNc2ccccn2)N(C(=O)OCc2ccccc2)C1)NC[C@H](NC(=O)c1ccccc1-c1ccccc1)C(=O)O` [Compound 104, 4-({2-[(Biphenyl-2-carbonyl)-amino]-2-carboxy-ethylcarbamoyl}-methoxy)-2-(pyridin-2-ylaminomethyl)-pyrrolidine-1-carboxylic acid benzyl ester], 10 to 500 nM. Take `COc1cccc(OC)c1C(=O)N[C@@H](CNC(=O)CO[C@@H]1C[C@@H](CNc2ccccn2)N(C(=O)OCc2ccccc2)C1)C(=O)O` [Compound 90, 4-{[2-Carboxy-2-(2,6-dimethoxy-benzoylamino)-ethylcarbamoyl]-methoxy}-2-(pyridin-2-ylaminomethyl)-pyrrolidine-1-carboxylic acid benzyl ester]: the IC50 is under 10 nM.

With `O=C(CO[C@@H]1C[C@@H](CNc2ccccn2)N(C(=O)OCc2ccccc2)C1)NC[C@H](NC(=O)c1cc(C(F)(F)F)cc(C(F)(F)F)c1)C(=O)O` [Compound 86, 4-{[2-(3,5-Bis-trifluoromethyl-benzoylamino)-2-carboxy-ethylcarbamoyl]-methoxy}-2-(pyridin-2-ylaminomethyl)-pyrrolidine-1-carboxylic acid benzyl ester], the IC50 was over 500 nM.

`C#CCOC(=O)N1C[C@H](OCC(=O)NC[C@H](NS(=O)(=O)c2c(C)cc(C)cc2C)C(=O)O)C[C@H]1CNc1ccccn1` [Compound 44, 4-{[2-Carboxy-2-(2,4,6-trimethyl-benzenesulfonylamino)-ethylcarbamoyl]-methoxy}-2-(pyridin-2-ylaminomethyl)-pyrrolidine-1-carboxylic acid prop-2-ynyl ester]: the IC50 is under 10 nM. With `Cc1cc(C)c(S(=O)(=O)N[C@@H](CNC(=O)CO[C@@H]2C[C@@H](CNc3ccccn3)N(C(=S)Nc3ccc(-c4c5ccc(=O)cc-5oc5cc(O)ccc45)c(C(=O)O)c3)C2)C(=O)O)c(C)c1` [Compound 61, 5-{[4-{[2-Carboxy-2-(2,4,6-trimethyl-benzenesulfonylamino)-ethylcarbamoyl]-methoxy}-2-(pyridin-2-ylaminomethyl)-pyrrolidine-1-carbothioyl]-amino}-2-(6-hydroxy-3-oxo-3H-xanthen-9-yl)-benzoic acid], the IC50 is 10 to 500 nM.
